# Assays:
# [1] = Metabolic stability in rat liver microsomes; settings: for T1/2: 0.5 mg/ml microsomal protein, n = 2
# Method: Then, this incubation plate containing mixed solution and NADPH regeneration system was agitated on a plate shaker at 100 rpm and pre-incubated at 37°C for 5 min. Subsequently, 300 μL of precooled quenching solution was added to each well of another deep-well plate (quench plate), which was cooled on ice. The solution in the incubation plate was transferred into the well of the quench plate as the samples in 0 min before it was mixed with another 20 µL of NADPH regeneration solution in the wells.
# The incubation plate was incubated at 37°C for 0, 10, 30, and 90 min. At each time point, 100 μL of the supernatant in the incubation plate was removed from each well, quenched immediately, transferred to the wells of the ice-cold quench plate, and vortexed for 5 min. Additionally, an equal volume of pre-warmed fresh regeneration solution was added to the incubation plate for compensation after every withdrawal. […] Each test was operated in duplicate. The determination conditions of LC-MS/MS are shown in Support Materials (Supplementary Table S4).
# The in vitro T1/2 was determined by converting the analyte/IS peak area ratios to percentage of drug remaining using the initial peak (t = 0 min) area ratio values as 100%.
# [2] = Kinetic solubility test in PBS; format: physicochemical; settings: phosphate-buffer saline (PBS), aqueous buffer, kinetic from dmso stock; PBS (100 mM, pH 7.4)
# Method: Internal standard (IS) solutions (propranolol and tolbutamide) were dissolved by acetonitrile (50 ng/ml propranolol + 200 ng/ml tolbutamide).
# The sample solutions were analyzed using LC-MS/MS. All the samples (test samples and references) for detection were prepared in duplicate. The conditions for LC-MS/MS are shown in Support Materials (Supplementary Table S1).
# in vitro = settings: PAMPA
# Method: Verapamil and digoxin solutions, used as reference, prepared in the same manner as the test drugs. Tolbutamide dissolved with acetonitrile (200 ng/ml) was used as IS.
# The resultant supernatants were determined by LC-MS/MS. The specific assay conditions are shown in Support Materials (Supplementary Table S2).
# [3] = tested on: PE-constricted aortic rings; experiment: Vasorelaxant effects on isolated PE-constricted aortic rings; set-up: species or system SD rats; settings: 10^–6 M PE, n = 6
# Method: SD rats were anesthetized by exposure to ether, and the thoracic aorta was removed and immersed in Krebs-Henseleit (K-H) buffer ([Lee et al., 2013]) at 4°C. The connective tissues and fats around the aorta were carefully removed under the microscopes, and the blood was flushed. The aorta ring was cut into four sections approximately 3 mm long and suspended in organ chambers containing K-H buffer. The endothelium was also removed by gently rubbing the lumen of the vessel with a cotton swab. The aortic rings were placed in a 5 ml organ chambers of DMT multiwire myograph system (620M, Danish Myo Technology, Denmark) and were filled with K-H buffer aerated with 95% O2 and 5% CO2 at 37°C. The aortic rings were mounted on hooks connected to a tension transducer and a displacement device.
# The initial vessel tension was slowly adjusted to 15 mN and maintained balanced for 60 min. The buffer was renewed once every 15 min. After equilibration, the vessel viability was pre-constricted by exposing the aortic rings to 60 mM KCl for 10 min ([Ding et al., 2019]). Then, the K-H buffer was continuously renewed to elute and restore the initial tension of the vascular ring to assay the vascular activity. The pre-treated operation was repeated two times, where the constriction amplitude after each KCl stimulation to reach the previous constriction amplitude was taken as the criterion, before the experiment continued. Subsequently, 10^–6 M PE was added to contract the blood vessel. After the constriction was stable, different concentrations of Ach (10^−9–10^–5 M) were used to dilate the vessels. Then, the vasorelaxation degree could be calculated with different Ach concentrations, as the following equation: Vasorelaxation degree (%)=Maxium constriction tension induced by PE−Minium diastolic tension induced by Ach/Maxium constriction tension induced by PE−Resting tension×100% (10) When the vasorelaxation degree corresponding to Ach (10^–5 M) is greater than 80%, the vascular endothelium is considered intact and functional. The endothelium is considered to be removed with a vasorelaxation degree of less than 20% ([Lee et al., 2013]). Endothelium-intact and endothelium-denuded aortic rings from the same aorta were tested.
# After equilibration, the endothelium-intact and the endothelium-denuded aortic rings were pre-constricted with 10^–6 M PE in the K-H buffer system.
# After equilibration, the endothelium-intact aortic rings were pre-constricted with 10^–6 M PE in the K-H buffer system. […] Then, the corresponding vasoconstrictive responses were examined and recorded.
# In the vasorelaxant effects investigations, all the data are presented as mean ± SEM. Statistical analysis was performed using two-way ANOVA followed by Fisher’s least significant difference (LSD) test. Values at p < 0.05 were considered statistically significant.
compound,measurement,setting,value
"COc1ccc2[nH]c([S+]([O-])Cc3ncc(C)c(OC)c3C)nc2c1 (stereo not drawn) [Omeprazole, omeprazole, reference compound]",T1/2,[1]; RLM with NADPH,15.6 min
"CC(=O)N1CCN(c2ccc(OCC3COC(Cn4ccnc4)(c4ccc(Cl)cc4Cl)O3)cc2)CC1 (stereo not drawn) [ketoconazole, reference compound]",solubility kinetic,[2],0.0389 ± 0.00154 mg/mL
"C[C@H]1O[C@@H](O[C@H]2[C@@H](O)C[C@H](O[C@H]3[C@@H](O)C[C@H](O[C@H]4CC[C@@]5(C)[C@H](CC[C@@H]6[C@@H]5C[C@@H](O)[C@]5(C)[C@@H](C7=CC(=O)OC7)CC[C@]65O)C4)O[C@@H]3C)O[C@@H]2C)C[C@H](O)[C@@H]1O [Digoxin, digoxin, reference compound]",Papp at 18000 s,in vitro,5.89 nm/s
"COC(=O)C1=C(C)NC(C)=C(C(=O)OCCN(C)Cc2ccccc2)C1c1cccc([N+](=O)[O-])c1 (stereo not drawn) [nicardipine, reference compound]",solubility kinetic,[2],0.00994 ± 5e-05 mg/mL
Pinoresinol [PINL],vasorelaxant effect on PE-constricted aortic rings,[3]; increasing concentration 25–200 μM,concentration-dependent vasorelaxation
same,"vasorelaxation degree, endothelium-denuded versus endothelium-intact group",[3]; PINL difference at 50–100 μM,significantly lower
same,vasorelaxant response compared between groups,"[3]; endothelium-intact rings, PINL vs PDG at 50 μM, combination vs single at 25, 50 and 100 μM",significantly better than in the PDG group
"COc1ccc2c(c1)[C@]13CCCC[C@@H]1[C@H](C2)N(C)CC3 [Dextromethorphan, dextromethorphan, reference compound]",T1/2,[1]; HLM with NADPH,63.8 min
same,microsomal CLint,"[1]; human, microsomes",21.7 µL/min/mg
